Patent publication US10106559B2, “Substituted tetrahydrocarbazole and carbazole carboxamide compounds” (BRISTOL-MYERS SQUIBB COMPANY, priority 2013, dated 2018)

Columns and labels:
[1] = biological target: Jak2 tyrosine kinase (Homo sapiens (Human), UniProt O60674); assay: Jak2 Tyrosine Kinase Assay; format: biochemical; conditions: for Ratio of Jak2/Btk IC50 values: selectivity: Jak2 IC50 divided by Btk IC50
[2] = biological target: human recombinant Btk (Homo sapiens (Human), UniProt Q06187); assay: Human Recombinant Btk Enzyme Assay; format: biochemical
[3] = system: CD69 expression on B cells in human whole blood; assay: Whole Blood Assay of BCR-Stimulated CD69 Expression on B Cells; format: cell-based; conditions: B-cell

Chain of human recombinant Btk (Q06187 whole entry): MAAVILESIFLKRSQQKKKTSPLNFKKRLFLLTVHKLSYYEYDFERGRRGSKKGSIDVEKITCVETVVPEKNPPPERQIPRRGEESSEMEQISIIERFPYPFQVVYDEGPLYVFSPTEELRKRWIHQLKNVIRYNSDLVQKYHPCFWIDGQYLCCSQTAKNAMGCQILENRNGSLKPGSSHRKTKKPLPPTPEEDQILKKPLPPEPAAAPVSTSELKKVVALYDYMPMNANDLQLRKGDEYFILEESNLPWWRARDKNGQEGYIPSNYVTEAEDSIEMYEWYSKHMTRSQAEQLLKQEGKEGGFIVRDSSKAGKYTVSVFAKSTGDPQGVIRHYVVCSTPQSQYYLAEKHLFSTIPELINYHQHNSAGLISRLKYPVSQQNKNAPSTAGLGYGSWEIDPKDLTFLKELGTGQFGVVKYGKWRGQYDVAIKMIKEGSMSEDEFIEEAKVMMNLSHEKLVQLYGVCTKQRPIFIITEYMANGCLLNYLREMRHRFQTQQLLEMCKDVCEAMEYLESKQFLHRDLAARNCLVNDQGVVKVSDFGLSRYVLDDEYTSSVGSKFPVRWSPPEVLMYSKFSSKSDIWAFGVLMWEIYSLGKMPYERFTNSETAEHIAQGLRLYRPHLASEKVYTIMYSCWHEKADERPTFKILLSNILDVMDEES
Chain of Jak2 tyrosine kinase (O60674 whole entry): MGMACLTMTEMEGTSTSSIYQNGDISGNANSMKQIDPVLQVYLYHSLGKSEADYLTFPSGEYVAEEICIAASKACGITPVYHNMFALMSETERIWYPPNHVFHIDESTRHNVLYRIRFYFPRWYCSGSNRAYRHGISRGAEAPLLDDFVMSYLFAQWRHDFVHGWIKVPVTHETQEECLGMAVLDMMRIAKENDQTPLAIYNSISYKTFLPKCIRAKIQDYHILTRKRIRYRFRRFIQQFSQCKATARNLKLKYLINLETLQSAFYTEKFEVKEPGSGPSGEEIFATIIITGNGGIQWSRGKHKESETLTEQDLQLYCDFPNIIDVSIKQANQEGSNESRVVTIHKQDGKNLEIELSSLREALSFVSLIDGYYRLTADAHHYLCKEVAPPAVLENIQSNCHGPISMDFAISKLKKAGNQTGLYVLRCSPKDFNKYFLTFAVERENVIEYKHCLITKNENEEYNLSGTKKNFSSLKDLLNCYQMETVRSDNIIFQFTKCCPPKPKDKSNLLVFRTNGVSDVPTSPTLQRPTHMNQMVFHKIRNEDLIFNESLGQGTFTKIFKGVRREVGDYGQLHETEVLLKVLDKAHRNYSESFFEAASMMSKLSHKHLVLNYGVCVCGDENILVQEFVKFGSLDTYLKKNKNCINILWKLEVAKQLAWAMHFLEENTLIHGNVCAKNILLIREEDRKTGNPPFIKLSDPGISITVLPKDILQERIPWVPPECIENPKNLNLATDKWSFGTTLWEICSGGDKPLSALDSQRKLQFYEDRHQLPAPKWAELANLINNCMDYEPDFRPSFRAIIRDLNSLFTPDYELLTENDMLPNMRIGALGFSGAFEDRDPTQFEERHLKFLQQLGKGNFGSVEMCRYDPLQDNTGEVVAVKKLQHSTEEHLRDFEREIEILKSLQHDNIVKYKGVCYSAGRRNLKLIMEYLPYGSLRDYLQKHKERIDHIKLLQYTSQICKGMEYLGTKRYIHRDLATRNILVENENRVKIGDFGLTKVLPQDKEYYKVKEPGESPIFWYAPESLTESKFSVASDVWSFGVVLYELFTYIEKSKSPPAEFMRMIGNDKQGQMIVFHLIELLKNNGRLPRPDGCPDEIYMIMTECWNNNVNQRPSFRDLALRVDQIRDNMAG

IC50 [1] | Ratio of Jak2/Btk IC50 values [1] | IC50 [2] | IC50 [3] | SMILES
1200 nM | 3800 | 0.32 nM |  | Cc1c(-c2c(F)cc(C(N)=O)c3[nH]c4cc(C(C)(C)O)ccc4c23)cccc1-n1c(=O)[nH]c2c(F)cc(F)cc2c1=O (single isomer, unassigned) [Example 50]
770 nM | 1600 | 0.49 nM | 200 nM | Cc1c(-c2c(C#N)cc(C(N)=O)c3[nH]c4cc(C(C)(C)O)ccc4c23)cccc1-n1c(=O)cc2c(Cl)cccn2c1=O (single isomer, unassigned) [Example 72]
> 2000 nM | >2600 | 0.77 nM | 17 nM | Cc1c(-c2c(F)cc(C(N)=O)c3[nH]c4cc(C(C)(C)O)ccc4c23)cccc1-n1c(=O)[nH]c2c(F)cc(F)cc2c1=O [Example 49]
2200 nM | 2000 | 1.1 nM |  | Cc1c(-c2c(F)cc(C(N)=O)c3[nH]c4cc(C(C)(C)O)ccc4c23)cccc1-n1c(=O)[nH]c2c(Cl)cccc2c1=O (single isomer, unassigned) [Example 53]
 |  | 0.34 nM | 89 nM | Cc1cc(C(N)=O)c2[nH]c3cc(C(C)(C)O)ccc3c2c1-c1cccc(-n2c(=O)[nH]c3c(F)cccc3c2=O)c1C (single isomer, unassigned) [Example 66]
1100 nM | 3300 | 0.33 nM | 25 nM | Cc1c(-c2c(Cl)cc(C(N)=O)c3[nH]c4cc(C(C)(C)O)ccc4c23)cccc1-n1c(=O)[nH]c2c(F)cc(F)cc2c1=O (single isomer, unassigned) [Example 48]
4300 nM |  |  | 180 nM | Cc1c(-c2c(F)cc(C(N)=O)c3[nH]c4cc(C(C)(C)O)ccc4c23)cccc1-n1c(=O)c2cccc(F)c2n(C)c1=O (single isomer, unassigned) [Example 74]
800 nM |  | 0.41 nM |  | Cc1cc(C(N)=O)c2[nH]c3cc(C(C)(C)O)ccc3c2c1-c1cccc(-n2c(=O)cc3c(Cl)cccn3c2=O)c1C [Example 71]
1200 nM | 3400 | 0.35 nM |  | Cc1c(-c2c(F)cc(C(N)=O)c3[nH]c4cc(C(C)(C)O)ccc4c23)cccc1-n1c(=O)[nH]c2c(Cl)cccc2c1=O (single isomer, unassigned) [Example 54]
> 2000 nM | >6700 | 0.3 nM | 190 nM | Cc1c(-c2c(F)cc(C(N)=O)c3[nH]c4cc(C(C)(C)O)ccc4c23)cccc1-n1c(=O)[nH]c2cc(F)ccc2c1=O (single isomer, unassigned) [Example 51]
 | 930 |  | 66 nM | Cc1c(-c2c(F)cc(C(N)=O)c3[nH]c4cc(CCO)ccc4c23)cccc1-n1c(=O)cc2c(F)cccn2c1=O [Example 70]
 | 630 |  | 75 nM | Cc1c(-c2c(F)cc(C(N)=O)c3[nH]c4c(c23)CC[C@H](C(C)(C)O)C4)cccc1-n1c(=O)cc2c(F)cccn2c1=O (single isomer, unassigned) [Example 68]
 | 24000 |  | 190 nM | Cc1c(-c2c(F)cc(C(N)=O)c3[nH]c4c(c23)CC[C@H](C(C)(C)O)C4)cccc1-n1c(=O)[nH]c2c(Cl)cccc2c1=O (single isomer, unassigned) [Example 63]
